Here are results for three molecules from patent US20170362590A1, “PHARMACEUTICAL COMPOSITIONS COMPRISING MICRORNA” (OREGON HEALTH & SCIENCE UNIVERSITY, priority 2016, published 2017).

One data set concerns ERK. The data set can be described thus: VEGF-dependent ERK phosphorylation (western blot). The format is cell-based, human. Particulars: HUVECs treated with VEGF (10 min). In general terms: A western blot detects proteins with antibodies after separation by electrophoresis.
The test system of data set [1] is HUVEC. The data set can be described thus: β-Gal senescence assay. The class given is cell-based, human. Particulars: for senescence (β-galactosidase positive cells): 48 hours after transfection, relative to controls. From the text: After this time cells were washed whit cold PBS and then stain for β-galactosidase activity following manufacture protocol (Senescence Cells Histochemical Staining Kit, Sigma).

Data set [2] relates to telomerase activity in HUVEC. In words: Telomerase activity assay. The class given is cell-based, human. Particulars: 48 hours of ectopic expression. As to the method:
[…] Cells were lysed and processed according to the manufacturer's instructions (Quantitative Telomerase Detection Kit, Allied Biotech). The telomerase activity in the cell extract was determined through its ability to synthesize telomeric repeats onto an oligonucleotide substrate. The resulting products were subsequently amplified using the polymerase chain reaction (PCR).

For data set [3], the system named is HUVEC. The data set can be described thus: 3-D angiogenic sprouting assay (fibrin bead). As to conditions: 3D-fibrinogen assay, co-culture with human aortic smooth muscle cells. The format is cell-based. Here is the method: Early passage HUVECs were coated on cytodex-3 (GE Healthcare) beads at a density of 10 million cells/40 μl beads and incubated in suspension for 3-4 hours with gentle mixing every hour. They were plated on TC treated 6 well dishes overnight and resuspended in a 2 mg/ml fibrin gel with 200,000 human smooth muscle cells. The gel was allowed to polymerize and complete EGM-2 media was added. Sprouts were visualized from days 3-4 via confocal imaging after overnight incubation with FITC labeled Ulex europaeus lectin (Vector labs). Immunofluorescence imaging was performed on a Yokogawa CSU-W1 spinning disk confocal microscope with 20 0.45 Plan Fluor objective (Nikon).

The subject of data set [4] is HUVEC. The data set can be described thus: HUVEC apoptosis. The format is cell-based, human. As to conditions: overexpression for 48 hours.
Data set [5] concerns VEGF-early gene signature. In words: VEGF-early response gene expression. As to conditions: HUVEC, VEGF 50 ng/ml. The class given is cell-based, human. As to the method: HUVECs were transfected for a total of 48 hours. At 24 hours cells were starved overnight and then treated 3 hours with VEGF (50 ng/ml). Graphs depict mean mRNA levels+SEM.
(§1) Total RNA and microRNA were isolated using miRVana microRNA isolation kit (Ambion). Reverse transcription was performed using TaqMan™ Advanced cDNA Synthesis Kit (Life Tech) according to the manufacture instructions. RT-PCR was performed using multiplexed TaqMan primers (Applied Biosystems). The relative quantification of gene expression was determined using the 2-DDCtmethod. Using this method, we obtained the fold changes in gene expression normalized to an internal control gene, GAPDH or U6 snRNA, respectively. A DNA damage array (LifeTech) was used for targeting analysis and a Human Cellular Senescence array (SA Biosciences) was used for senescence phenotype profiling.

For data set [6], the system named is HUVEC. In words: HUVEC cell proliferation assay. The format is cell-based, human.
The next data set deals with MRE11a, RAD50 and NBN. The data set can be described thus: Target validation in HUVEC (Western blot, qPCR). The format is cell-based, human. As to conditions: qPCR and immunofluorescence. As to the method:
After treatment, cells were washed in phosphate-buffered saline (PBS) and prepared in RIPA lysis buffer (Sigma) supplemented with Complete Protease inhibitor cocktail (ROCHE) and Phosphatase inhibitors cocktail 2 and 3 (Sigma). Cells were harvested by scraping, and proteins were analyzed by Western blot. Equivalent amounts of protein were loaded on a 4-12% gradient SDS-polyacrylamide gel (BioRAD) and transferred for 30 min to a TransBlot turbo (BioRAD) nitrocellulose membrane. Membranes were blocked in 5% milk or 3% BSA and incubated with antibodies as indicated: Mre11a (Cell Signaling, 4847, 1:1000), RAD50 (Cell Signaling, 3427, 1:1000), NBS1 (Cell Signaling, 14956, 1:500), p-ATM (Cell Signaling, 4526, 1:500), H2AX (Abcam 11174, 1:500), p21 (Cell Signaling, 2947, 1:1000), P-Rb (Cell Signaling, 9301, 1:500), ERK1/2 (Cell Signaling, 9102, 1:1000), P-ERK1/2 (9101, 1:1000). β-actin (Sigma, A5316, 1:10,000 1 h RT) was used as housekeeping controls for the total levels of protein loaded. Membranes were washed in TBST and incubated with secondary antibodies from Licor Biosciences were used goat anti mouse 925-68020 (1:15,000) and goat anti rabbit 925-32211 (1:15,000). […]
Total RNA and microRNA were isolated using miRVana microRNA isolation kit (Ambion). […] The relative quantification of gene expression was determined using the 2-DDCtmethod. […]

The next data set has as its system CD44. The data set can be described thus: CD44 expression (Human Senescence gene array). The class given is cell-based. As to conditions: HUVEC. As to the method:
as §1
CD44 expression was analyzed by flow cytometry in HUVECs transfected with miR-494 for 48 hours. Cells were washed in PBS and tripsinazed. Cells were incubated in blocking solution (0.5% BSA/10% goat serum) for 30 min and 1 hour in primary antibody-PEcy7 conjugated (CD44, BD, 560533) prepared in blocking solution. Then cells were washed in PBS 3×. Cells were analyzed in a CANTOII equipment.

Data set [7] has as its system 3'-UTRs of MRE11a, RAD50, and NBN. In words: 3'-UTR luciferase reporter assay in HEK-293T cells. Particulars: 24 hours cotransfection. The format is cell-based, human. As to the method: To determine targets of miR-99b and miR-494, the RNAs were ectopically expressed in HUVECs. Targets were analyzed using a DNA damage array 24 hours after transfection. Three common targets for miR-99b and miR-494 were identified: MRE11a, RAD50 and NBN. These three proteins form the MRN complex which is involved in homologous repair and non-homologous end joining. mRNA targets of miR-494 and miR-99b were also assessed using a miR-TRAP assay. […] Finally, the 3′-UTRs of MRE11a, RAD50, and NBN were cloned into luciferase reporter vectors. The luciferase vectors were contrasfected with miR-494 and miR99b into HEK-293T cells for 24 hours.
MRE11a Luciferase-3-UTR plasmid was purchased from SwitchGear Genomics. RAD50 and NBN luciferase constructs were purchased as pmiR-REPORT vector (Ambion). Luciferase assay reagents were purchased from Switch Gear Genomics and Promega.
Cells were transfected at 50-60% confluence using standard forward transfection protocols using RNAimax reagent (Life Technologies) for miRs/siRNAs and Lipofectamine 2000 for plasmid or plasmid RNA dual transfections. Typically 50 nM RNA and […] plasmid DNA were used for transfections. Target protectors were transfected at a concentration of 50 nM or equivalent to the miR amounts.
On the technique in general: In a reporter assay the amount or activity of a reporter protein is the signal.

The subject of the next data set is p21. The data set can be described thus: Western blot of p21 in HUVEC. The class given is cell-based, human. Particulars: HUVEC expressing the miRNAs. Here is the method:
After treatment, cells were washed in phosphate-buffered saline (PBS) and prepared in RIPA lysis buffer (Sigma) supplemented with Complete Protease inhibitor cocktail (ROCHE) and Phosphatase inhibitors cocktail 2 and 3 (Sigma). Cells were harvested by scraping, and proteins were analyzed by Western blot. Equivalent amounts of protein were loaded on a 4-12% gradient SDS-polyacrylamide gel (BioRAD) and transferred for 30 min to a TransBlot turbo (BioRAD) nitrocellulose membrane. Membranes were blocked in 5% milk or 3% BSA and incubated with antibodies as indicated: Mre11a (Cell Signaling, 4847, 1:1000), RAD50 (Cell Signaling, 3427, 1:1000), NBS1 (Cell Signaling, 14956, 1:500), p-ATM (Cell Signaling, 4526, 1:500), H2AX (Abcam 11174, 1:500), p21 (Cell Signaling, 2947, 1:1000), P-Rb (Cell Signaling, 9301, 1:500), ERK1/2 (Cell Signaling, 9102, 1:1000), P-ERK1/2 (9101, 1:1000). β-actin (Sigma, A5316, 1:10,000 1 h RT) was used as housekeeping controls for the total levels of protein loaded. Membranes were washed in TBST and incubated with secondary antibodies from Licor Biosciences were used goat anti mouse 925-68020 (1:15,000) and goat anti rabbit 925-32211 (1:15,000). Blots were scanned on the Licor Odyssey scanner according to manufacturer's instructions.

In data set [8] the test system is MRE11a, RAD50, and NBN mRNAs. In words: miR-TRAP/RISC TRAP assay. The class given is cell-based. Particulars: 293 T cells, 24 hours. As to the method: 293 T cells were co-transfected with a plasmid coding for a flag-tagged dominant negative […] mutant (Clontech) along with a control mimic, miR-99b or miR-494 mimic according to kit instructions. Twenty-four hours later the RNA protein complexes were crosslinked and the RISC complex was immunoprecipitated using an anti-FLAG antibody and RNA was isolated for quantitative real-time PCR of target genes. The fold enrichment was calculated using pre and post IP controls as well as normalization to the control mimic pull-downs.

`N=C1NC(=O)/C(=C/c2ccc(O)cc2)S1` [Mirin-1, reference compound]: in the data set with ERK, the “phosphorylation of ERK” value was “decreased ERK phosphorylation”. Also, the senescence entry with HUVEC [1] (HUVEC, 50 uM, after 24 hours) was “induce senescence”.

As to “miR-21-3p: Human miR-21-3p (SEQ ID NO: 2), used as miR mimic (sense CAACACCAGUCGAUGGGCUGU; listed as RNA, chemistry not given here; listed as Homo sapiens)”, the telomerase activity entry in data set [2] is “impairing telomerase function”. Further, the sprouting angiogenesis entry with HUVEC [3] was “inhibit sprouting angiogenesis”. Moreover, the “senescence (β-galactosidase positive cells)” value in the data set with HUVEC [1] (HUVEC) is given as “lead to endothelial senescence”.

For the molecule “miR-99b: Human miR-99b-5p (SEQ ID NO: 3), used as miR mimic (sense CACCCGUAGAACCGACCUUGCG; listed as RNA, chemistry not given here; listed as Homo sapiens)”, in the data set on HUVEC [4], the apoptosis result is on record as “no effect on apoptosis”. Besides, the figures for the telomerase activity entry in [2] and in data set [2] (listed as miR-99b-5p) were “Impaired telomerase activity” and “impairing telomerase function”, respectively. For the same molecule, the specific-VEGF-early gene signature result in data set [5] is reported as “block a specific-VEGF-early gene signature”. In addition, the “proliferation relative to controls” value in the data set with HUVEC [6] (HUVEC, overexpression for 48 hours) is “less proliferation”. Further, the “proliferation in old HUVECs” value in the data set on HUVEC [6] (high-passage HUVEC) is “without dramatically changing proliferation”. Moreover, in the data set on MRE11a, RAD50 and NBN, the “protein expression of target mRNAs (MRE11a, RAD50, NBN)” value is on record as “Blocking of protein expression”. Moreover, the “expression of CD44, a marker of senescence” value with CD44 was “induced expression of CD44”. In addition, the “luciferase expression from 3'-UTR reporter vectors” value in [7] was “Significantly less luciferase expression”. Also, the “phosphorylation of ERK” value in the data set with ERK is “lower rate of phosphorylation of ERK”. Also, the sprouting angiogenesis result is on record as “inhibited sprouting angiogenesis” with HUVEC [3] and “inhibit sprouting angiogenesis” in the data set with HUVEC [3] (listed as miR-99b-5p). In the data set on p21, the “expression of cell cycle regulator p21” value is given as “greater expression”. Moreover, in data set [8], the “enrichment of target mRNAs in RISC pulldown relative to controls” value is recorded as “only MRE11a was enriched”. Also, the “senescence (β-galactosidase positive cells)” value in the data set with HUVEC [1] (HUVEC) is “higher number of β-galactosidase positive cells”; with HUVEC [1] (HUVEC, listed as miR-99b-5p), “lead to endothelial senescence”. For the same molecule, the “senescence phenotype in old HUVECs” value in the data set on HUVEC [1] (high-passage HUVEC, β-galactosidase assay) is given as “restored a senescence phenotype”.
